# According to patent US7576108B2, “Substituted arylcyclopropylacetamides as glucokinase activators” (Eli Lilly and Company, priority 2003, dated 2009):
# Biological target: T1, purified recombinant human islet GK (Homo sapiens, UniProt P35557)
# T1 construct: (His)6; made in house; host or cells: E. coli
# T1 sequence (P35557 1-465): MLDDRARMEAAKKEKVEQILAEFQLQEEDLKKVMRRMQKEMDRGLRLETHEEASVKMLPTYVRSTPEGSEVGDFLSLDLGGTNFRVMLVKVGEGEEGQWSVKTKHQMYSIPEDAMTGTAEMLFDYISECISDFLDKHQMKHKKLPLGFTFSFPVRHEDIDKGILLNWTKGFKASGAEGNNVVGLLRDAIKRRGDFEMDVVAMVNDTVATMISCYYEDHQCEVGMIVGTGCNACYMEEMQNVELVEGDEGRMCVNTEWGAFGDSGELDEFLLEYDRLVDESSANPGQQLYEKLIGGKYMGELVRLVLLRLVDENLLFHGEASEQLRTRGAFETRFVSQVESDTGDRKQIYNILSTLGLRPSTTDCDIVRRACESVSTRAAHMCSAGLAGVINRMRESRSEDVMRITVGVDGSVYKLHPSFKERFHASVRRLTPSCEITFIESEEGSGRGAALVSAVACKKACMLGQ
# Assay: Enzymatic coupled glucokinase (GK) assay (NADH production, absorbance at 340 nm)
# Type: biochemical
# Conditions: concentration of activator that produced 50% of maximum increase in the activity of GK; at 10 mM glucose
# Text: An enzymatic coupled glucokinase (GK) assay using purified recombinant human islet GK was used to evaluate effects of the activators. In this assay, GK catalyzes glucose phosphorylation in the presence of ATP. The product of this reaction, glucose-6-phosphate, is then oxidized by an excess of glucose-6-dehydrogenase to produce gluconate-6-phosphate with concomitant reduction of NAD^+ to NADH (Davidson and Arion, 1987). The following outlines the two reactions involved: • Glucose+ATP→Glucose-6-P+ADP (Glucokinase) • Glucose-6-P+NAD→Gluconate-6-P+NADH (glucose-6-P dehydrogenase)
# The NADH production detected by absorbance at 340 nm is used to monitor the enzymatic activity.
# The human islet GK isoform was expressed in E. coli as (His)6-tagged fusion protein and purified with metal chelate affinity chromatography (Tiedge et al., 1997). After purification the enzyme was stored in aliquots at concentration 0.8 mg/ml in 25 mM NaH2PO4, 150 mM NaCl, 100 mM imidazole, 1 mM DTT, 50% glycerol at −80° C.
# The assay was performed in flat bottom 96-well plates in a final incubation volume of 100 μl. The incubation mixture consisted of 25 mM HEPES (pH7.4), 50 mM KCl, 2.5 mM MgCl2, 2 mM dithiothreitol, 4 U/ml glucose-6-phosphate dehydrogenase from Leuconostoc mesenteroides, 5 mM ATP, 1 mM NAD and 10 mM glucose. All reagents were from Sigma-Aldrich Co. (St. Louis, Mo.). Test compounds were dissolved in DMSO and then added to the reaction mixture giving the final DMSO concentration of 10%.
# The reaction was initiated by addition of 20 μl GK and run for 20 min at 37° C. The amount of formed NADH was measured as an increase in absorbance at 340 nm using a microplate reader.
# The concentration of activator that produced 50% of maximum increase in the activity of GK (EC50) was calculated.
row,EC50,SMILES
1,1.18 µM,"CS(=O)(=O)c1ccc([C@@]2(C(=O)Nc3nccs3)C[C@H]2CC2CCCCC2)cc1 (racemic) [Example 2, (±)-(E)-2-Cyclohexylmethyl-1-(4-methanesulfonyl-phenyl)-cyclopropanecarboxylic acid thiazol-2-ylamide]"
2,9.32 µM,"Cc1nnc(NC(=O)[C@]2(c3ccc(S(C)(=O)=O)cc3)C[C@H]2C2CCCC2)s1 (racemic) [Example 11, (±)-(E)-2-Cyclopentyl-1-(4-methanesulfonyl-phenyl)-cyclopropanecarboxylic acid (5-methyl-[1,3,4]thiadiazol-2-yl)-amide]"
3,3.66 µM,"COC(=O)c1ccc([C@@]2(C(=O)Nc3nccs3)C[C@H]2C2CCCC2)cc1 (racemic) [Example 73, (±)-(E)-4-[2-Cyclopentyl-1-(thiazol-2-ylcarbamoyl)-cyclopropyl]-benzoic acid methyl ester]"
4,0.15 µM,"CS(=O)(=O)c1ccc([C@@]2(C(=O)Nc3nccs3)C[C@H]2C2CCCCC2)cc1 (single isomer, unassigned) [55 (Isomer 1)]"
5,12.7 µM,"Cc1cc(NC(=O)[C@]2(c3ccc(S(C)(=O)=O)cc3)C[C@H]2C2CCCC2)no1 (racemic) [Example 13, (±)-(E)-2-Cyclopentyl-1-(4-methanesulfonyl-phenyl)-cyclopropanecarboxylic acid (5-methyl-isoxazol-3-yl)-amide]"
6,7.61 µM,"CS(=O)(=O)c1cccc([C@@]2(C(=O)Nc3nccs3)C[C@H]2C2CCCCC2)c1 (racemic) [Example 35, (±)-(E)-2-Cyclohexyl-1-(3-methanesulfonyl-phenyl)-cyclopropanecarboxylic acid thiazol-2-ylamide]"

# Further lines, the compound ahead of its results:
row,SMILES,EC50
1,"CS(=O)(=O)c1ccc(C2(C(=O)Nc3nccs3)C(C3CCCCC3)C2(F)F)cc1 (single isomer, unassigned) [63 (Isomer 2), (±)-(E)-3-Cyclohexyl-2,2-difluoro-1-(4-methanesulfonyl-phenyl)-cyclopropanecarboxylic acid thiazol-2-ylamide]",5.3 µM
2,"CS(=O)(=O)Nc1ccc([C@@]2(C(=O)Nc3nccs3)C[C@H]2C2CCCCC2)cc1 (racemic) [Example 52, (±)-(E)-2-Cyclohexyl-1-(4-methanesulfonylamino-phenyl)-cyclopropanecarboxylic acid thiazol-2-ylamide]",3.82 µM
3,"CC(=O)Nc1ccc([C@@]2(C(=O)Nc3nccs3)C[C@H]2C2CCCCC2)cc1 (racemic) [Example 51, (±)-(E)-1-(4-Acetylamino-phenyl)-2-cyclohexyl-cyclopropanecarboxylic acid thiazol-2-ylamide]",10.5 µM
4,"CCN(CC)CCCS(=O)(=O)c1ccc([C@@]2(C(=O)Nc3nccs3)C[C@H]2C2CCCCC2)cc1 (racemic) [Example 7, (±)-(E)-2-Cyclohexyl-1-[4-(3-diethylamino-propane-1-sulfonyl)-phenyl]-cyclopropanecarboxylic acid thiazol-2-ylamide]",0.7 µM
5,"CS(=O)(=O)c1ccc([C@@]2(C(=O)Nc3nccs3)C[C@H]2C2CCCCC2)cc1C(F)(F)F (racemic) [Example 45, (±)-(E)-2-Cyclohexyl-1-(4-methanesulfonyl-3-trifluoromethyl-phenyl)-cyclopropanecarboxylic acid thiazol-2-ylamide]",0.16 µM
6,"CNC(=O)c1ccc([C@@]2(C(=O)Nc3nccs3)C[C@H]2C2CCCCC2)cc1 (racemic) [Example 50, (±)-(E)4-[2-Cyclohexyl-1-(thiazol-2-ylcarbamoyl)-cyclopropyl]-N-methyl-benzamide]",7.61 µM
7,"CC(C)C[C@@H]1C[C@]1(C(=O)Nc1nccs1)c1ccc(S(C)(=O)=O)cc1 (racemic) [Example 3, (±)-(E)-2-Isobutyl-1-(4-methanesulfonyl-phenyl)-cyclopropanecarboxylic acid thiazol-2-ylamide]",5.46 µM
8,"COc1ccc([C@@]2(C(=O)Nc3nccs3)C[C@H]2C2CCCCC2)cc1 (racemic) [Example 48, (±)-(E)-[2-Cyclohexyl-1-(4-methoxy-phenyl)-cyclopropanecarboxylic acid thiazol-2-ylamide]]",8.69 µM
9,"O=C(Nc1nccs1)[C@]1(c2ccc(S(=O)(=O)NCCc3ccccn3)cc2)C[C@H]1C1CCCC1 (single isomer, unassigned) [Example 26, (E)-2-Cyclopentyl-1-[4-(2-pyridin-2-yl-ethylsulfamoyl)-phenyl]-cyclopropanecarboxylic acid thiazol-2-ylamide]",0.36 µM
10,"CS(=O)(=O)c1csc([C@@]2(C(=O)Nc3nccs3)C[C@H]2C2CCCC2)c1 (racemic) [Example 20, (±)-(Z)-2-Cyclopentyl-1-(4-methanesulfonyl-thiophen-2-yl)-cyclopropanecarboxylic acid thiazol-2-ylamide]",1.9 µM
11,"Cc1cnc(NC(=O)[C@]2(c3ccc(S(C)(=O)=O)cc3)C[C@H]2C2CCCCC2)s1 (racemic) [Example 77, (±)-(E)-2-Cyclohexyl-1-(4-methanesulfonyl-phenyl)-cyclopropanecarboxylic acid (5-methyl-thiazol-2-yl)-amide]",0.39 µM
